Like-named read-outs stand apart in the source and are kept apart here.
Key:
[1] = tested on: MRSA; assay: Phase 2 cSSSI study: cure rate by baseline pathogen; format: in vivo, Staphylococcus aureus; conditions: MRSA at baseline, TOC
Experimental: (§1) The primary efficacy endpoint was the clinical response in the CE population at TOC, which occurred 20 to 28 days after study enrollment on Day 1. Clinical response was determined by the investigator as part of the end-of-therapy, TOC, and late follow-up procedures by assessing signs and symptoms including fever, pain, tenderness, erythema, induration, edema, purulent drainage, eschar, and devitalized tissue. A clinical response of cure, improvement, failure, or indeterminate was assigned at end-of-therapy and TOC by the investigator based on clinical signs and symptoms. At late follow-up, the investigator could assign the clinical response of relapse in addition to cure, improvement, or indeterminate. Only patients with a clinical response of cure or improvement at TOC were assessed for clinical response at late follow-up.
(§2) Cure was defined as resolution of purulent drainage, pain, edema, fever, erythema, tenderness, and induration. Serous drainage or aspirate and/or granulation tissue could be present. Improvement was defined as resolution of purulent drainage and, in the case of cellulitis, cessation of fever and pain. Residual erythema, edema, pain (in the case of wound or abscess), tenderness, and/or induration could be present as could serous drainage, granulation tissue, eschar, and/or devitalized tissue. Failure included any of the following: presence of purulent drainage (or aspirate) and/or fever; the unanticipated need for abscess drainage or removal of sutures (for treatment of infection)>48 hours after initiation of study therapy; or treatment with nonstudy systemic antibiotic having activity against gram-positive pathogen(s) for the primary infection site or use of topical antibiotics at the site of primary infection 24 hours or more after initiation of study medication therapy.
(§3) Blood and infection site cultures were obtained within three days of enrollment (often done at the time of enrollment). End-of-therapy, TOC, and late follow-up (or at early relapse) cultures were obtained from the infection site if clinically indicated. […] Specimens were cultured and pathogens were identified at each investigative site's certified laboratory. All isolated gram-positive pathogen(s) that were obtained from the infection site at baseline/randomization and up to and including the TOC time point were subcultured and sent to a central laboratory (Covance Clinical Laboratories, Indianapolis, Ind.) for confirmatory identification and susceptibility testing. In cases of discrepancy between the local and the central laboratory, central laboratory results were used.

[2] = tested on: MSSA; assay: as above; format: in vivo, Staphylococcus aureus; conditions: MSSA at baseline
Experimental: as §1, §2, §3

[3] = clinical; format: in vivo, human
Experimental: A pharmacokinetic (PK) analysis was conducted of oritavancin from patients having complicated skin and skin structure infections (cSSSI) or bacteremia. The population for the analysis consisted of oritavancin-treated subjects and patients from 12 studies, consisting of nine Phase 1 studies, two Phase 2 studies, and one Phase 2/3 study. Oritavancin was administered as both single- and multiple-dose intravenous (IV) infusions in fixed doses ranging from 100 to 800 mg or weight-based doses ranging from 0.02 to 10 mg/kg.
Results: The final analysis population contained data from a total of 560 subjects: 200 from the Phase 1 studies, 86 from the Phase 2 bacteremia study, 29 from the Phase 2 cSSSI study, and 245 from the Phase 2/3 cSSSI study. The final pharmacokinetic analysis dataset contained a total of 6,336 oritavancin plasma concentrations, collected from these 560 subjects, of which 6,290 oritavancin concentrations were included in the results. The majority of subjects (>90%) contributed at least six samples to the population pharmacokinetic analysis.
A wide range of oritavancin doses was administered across the studies included in the population PK analysis, where 42% (236 of 560) of subjects received ≧400 mg, while 25% (142 of 560) received 800 mg or more. A histogram of the oritavancin doses administered is shown in FIG. 6, with midpoint values for each dose range shown over each bar. The duration over which oritavancin was infused ranged from 0.13 to 6.5 hr across all studies; however, oritavancin was administered over 1 hr for the majority of subjects. Histograms of the actual infusion durations and rates are shown in FIGS. 7 and 8, respectively, with midpoint values shown for each infusion duration or rate over each bar.
The final structural PK model for oritavancin in this analysis was a three-compartment model (one central, two peripheral) with a zero-order intravenous infusion rate and first-order, linear elimination. The model fit the data well (data not shown), regardless of the observed concentration or administered dose. If a nonlinear model had been necessary, there would have been significant bias in the weighted residuals at the lowest and/or highest concentrations and/or doses. No trends for decreasing CL with increasing dose were found.

CN[C@H](CC(C)C)C(=O)N[C@H]1C(=O)N[C@@H](CC(N)=O)C(=O)N[C@H]2C(=O)N[C@H]3C(=O)N[C@H](C(=O)N[C@H](C(=O)O)c4cc(O)cc(O)c4-c4cc3ccc4O)[C@H](O[C@H]3C[C@](C)(N)[C@@H](O)[C@H](C)O3)c3ccc(c(Cl)c3)Oc3cc2cc(c3O[C@@H]2O[C@H](CO)[C@@H](O)[C@H](O)[C@H]2O[C@H]2C[C@](C)(NCc3ccc(-c4ccc(Cl)cc4)cc3)[C@@H](O)[C@H](C)O2)Oc2ccc(cc2Cl)[C@H]1O [Oritavancin, N-(4-(4-chlorophenyl)benzyl)A82846B]
% of patients cured (cure and improvement) ([1]; 200 mg daily dose): 78.3% | % of patients cured (cure and improvement) ([1]; 800 mg infrequent dose): 87.0% | % of patients cured (cure and improvement) ([1]; 1200 mg single dose): 73.0% | % of patients cured (cure and improvement) ([2]; 200 mg daily dose): 56.5% | % of patients cured (cure and improvement) ([2]; 800 mg infrequent dose): 68.8% | % of patients cured (cure and improvement) ([2]; 1200 mg single dose): 90.9% | Cmin, Mean ([3]; 180-330 mg/day (n = 140)): 2580 ng/mL | Cmin, Median ([3]; 180-330 mg/day (n = 140)): 2200 ng/mL | Cmin, Mean ([3]; <180 mg/day (n = 181)): 1170 ng/mL | Cmin, Median ([3]; <180 mg/day (n = 181)): 949 ng/mL | Cmin, Mean ([3]; >330 mg/day (n = 239)): 12500 ng/mL | Cmin, Median ([3]; >330 mg/day (n = 239)): 11000 ng/mL | Vc ([3]; healthy subjects, Multiple Dose (n = 109)): 5.10 L | Cmin ([3]; healthy subjects, Multiple Dose (n = 109), normalized to a dose of 200 mg, after a median of 4 (2-14) days): 11500 ng/mL | Vc ([3]; healthy subjects, Single Dose (n = 91)): 5.30 L | Cmin ([3]; healthy subjects, Single Dose (n = 91), normalized to a dose of 200 mg): 3300 ng/mL | Plasma half-life ([3]; human, in vivo): prolonged | AUC(0-t) ([3]; human, in vivo, 200 mg, healthy subjects, Multiple Dose (n = 109), normalized to a dose of 200 mg, after a median of 4 (2-14) days, read-out: AUC0-24): 459 µg·h/mL | Cmax ([3]; human, in vivo, 200 mg, healthy subjects, Multiple Dose (n = 109), normalized to a dose of 200 mg, after a median of 4 (2-14) days, read-out: Cmax): 46800 ng/mL | AUC(0-t) ([3]; human, in vivo, 200 mg, healthy subjects, Single Dose (n = 91), normalized to a dose of 200 mg, read-out: AUC0-24): 216 µg·h/mL | Cmax ([3]; human, in vivo, 200 mg, healthy subjects, Single Dose (n = 91), normalized to a dose of 200 mg, read-out: Cmax): 33900 ng/mL | AUC(0-t) ([3]; human, in vivo, 180-330 mg/day (n = 140), read-out: AUC0-24, Mean): 181 µg·h/mL | AUC(0-t) ([3]; human, in vivo, 180-330 mg/day (n = 140), read-out: AUC0-24, Median): 171 µg·h/mL | clearance ([3]; human, in vivo, 180-330 mg/day (n = 140), read-out: CL, Mean (converted)): 9.57 mL/min | clearance ([3]; human, in vivo, 180-330 mg/day (n = 140), read-out: CL, Median (converted)): 9.07 mL/min | Cmax ([3]; human, in vivo, 180-330 mg/day (n = 140), read-out: Cmax, Mean): 33400 ng/mL | Cmax ([3]; human, in vivo, 180-330 mg/day (n = 140), read-out: Cmax, Median): 30000 ng/mL | half-life ([3]; human, in vivo, 180-330 mg/day (n = 140), read-out: T1/2, α, Mean (converted)): 2.13 h | half-life ([3]; human, in vivo, 180-330 mg/day (n = 140), read-out: T1/2, α, Median (converted)): 2.13 h | half-life ([3]; human, in vivo, 180-330 mg/day (n = 140), read-out: T1/2, β, Mean (converted)): 29.7 h | half-life ([3]; human, in vivo, 180-330 mg/day (n = 140), read-out: T1/2, β, Median (converted)): 29.3 h | half-life ([3]; human, in vivo, 180-330 mg/day (n = 140), read-out: T1/2, γ, Mean (converted)): 376 h | half-life ([3]; human, in vivo, 180-330 mg/day (n = 140), read-out: T1/2, γ, Median (converted)): 373 h | AUC(0-t) ([3]; human, in vivo, <180 mg/day (n = 181), read-out: AUC0-24, Mean): 90 µg·h/mL | AUC(0-t) ([3]; human, in vivo, <180 mg/day (n = 181), read-out: AUC0-24, Median): 73.6 µg·h/mL | clearance ([3]; human, in vivo, <180 mg/day (n = 181), read-out: CL, Mean (converted)): 9.3 mL/min | clearance ([3]; human, in vivo, <180 mg/day (n = 181), read-out: CL, Median (converted)): 9.17 mL/min | Cmax ([3]; human, in vivo, <180 mg/day (n = 181), read-out: Cmax, Mean): 17800 ng/mL | Cmax ([3]; human, in vivo, <180 mg/day (n = 181), read-out: Cmax, Median): 14300 ng/mL | half-life ([3]; human, in vivo, <180 mg/day (n = 181), read-out: T1/2, α, Mean (converted)): 2.01 h | half-life ([3]; human, in vivo, <180 mg/day (n = 181), read-out: T1/2, α, Median (converted)): 1.97 h | half-life ([3]; human, in vivo, <180 mg/day (n = 181), read-out: T1/2, β, Mean (converted)): 27.4 h | half-life ([3]; human, in vivo, <180 mg/day (n = 181), read-out: T1/2, β, Median (converted)): 27.5 h | half-life ([3]; human, in vivo, <180 mg/day (n = 181), read-out: T1/2, γ, Mean (converted)): 376 h | half-life ([3]; human, in vivo, <180 mg/day (n = 181), read-out: T1/2, γ, Median (converted)): 387 h | AUC(0-t) ([3]; human, in vivo, >330 mg/day (n = 239), read-out: AUC0-24, Mean): 750 µg·h/mL | AUC(0-t) ([3]; human, in vivo, >330 mg/day (n = 239), read-out: AUC0-24, Median): 712 µg·h/mL | clearance ([3]; human, in vivo, >330 mg/day (n = 239), read-out: CL, Mean (converted)): 7.35 mL/min | clearance ([3]; human, in vivo, >330 mg/day (n = 239), read-out: CL, Median (converted)): 6.68 mL/min | Cmax ([3]; human, in vivo, >330 mg/day (n = 239), read-out: Cmax, Mean): 106000 ng/mL | Cmax ([3]; human, in vivo, >330 mg/day (n = 239), read-out: Cmax, Median): 105000 ng/mL | half-life ([3]; human, in vivo, >330 mg/day (n = 239), read-out: T1/2, α, Mean (converted)): 2.45 h | half-life ([3]; human, in vivo, >330 mg/day (n = 239), read-out: T1/2, α, Median (converted)): 2.35 h | half-life ([3]; human, in vivo, >330 mg/day (n = 239), read-out: T1/2, β, Mean (converted)): 31.4 h | half-life ([3]; human, in vivo, >330 mg/day (n = 239), read-out: T1/2, β, Median (converted)): 29.3 h | half-life ([3]; human, in vivo, >330 mg/day (n = 239), read-out: T1/2, γ, Mean (converted)): 353 h | half-life ([3]; human, in vivo, >330 mg/day (n = 239), read-out: T1/2, γ, Median (converted)): 347 h | clearance ([3]; human, in vivo, healthy subjects, Multiple Dose (n = 109), read-out: CL (converted)): 5.15 mL/min | half-life ([3]; human, in vivo, healthy subjects, Multiple Dose (n = 109), read-out: T1/2, α (converted)): 2.82 h | half-life ([3]; human, in vivo, healthy subjects, Multiple Dose (n = 109), read-out: T1/2, β (converted)): 33 h | half-life ([3]; human, in vivo, healthy subjects, Multiple Dose (n = 109), read-out: T1/2, γ (converted)): 320 h | clearance ([3]; human, in vivo, healthy subjects, Single Dose (n = 91), read-out: CL (converted)): 6.7 mL/min | half-life ([3]; human, in vivo, healthy subjects, Single Dose (n = 91), read-out: T1/2, α (converted)): 2.25 h | half-life ([3]; human, in vivo, healthy subjects, Single Dose (n = 91), read-out: T1/2, β (converted)): 19.8 h | half-life ([3]; human, in vivo, healthy subjects, Single Dose (n = 91), read-out: T1/2, γ (converted)): 316 h
